The NIST ThermoML archive (doi:10.1016/j.fluid.2004.09.013)

Details: for mass density: Fluid (supercritical or subcritical phases), Vibrating tube method; for vapor or sublimation pressure: Liquid

C/C=C/C [(E)-2-butene]
Details | mass density [kg/m3]
273.24 K, 553 kPa | 627.87
273.24 K, 4992 kPa | 633.27
273.24 K, 9995 kPa | 638.88
273.24 K, 14991 kPa | 644.04
273.24 K, 19997 kPa | 648.86
273.24 K, 24996 kPa | 653.38
273.24 K, 29993 kPa | 657.62
273.24 K, 34997 kPa | 661.64
273.24 K, 39989 kPa | 665.43
278.25 K, 553 kPa | 622.2
278.25 K, 4990 kPa | 627.88
278.25 K, 10005 kPa | 633.76
278.25 K, 15007 kPa | 639.16
278.25 K, 20007 kPa | 644.16
278.25 K, 24990 kPa | 648.82
278.25 K, 30005 kPa | 653.23
278.25 K, 34987 kPa | 657.36
278.25 K, 40004 kPa | 661.3
283.26 K, 551 kPa | 616.48
283.26 K, 4990 kPa | 622.46
283.26 K, 9993 kPa | 628.6
283.26 K, 15009 kPa | 634.25
283.26 K, 20003 kPa | 639.45
283.26 K, 24994 kPa | 644.29
283.26 K, 29985 kPa | 648.83
283.26 K, 35008 kPa | 653.12
283.26 K, 40005 kPa | 657.17
288.27 K, 548 kPa | 610.68
288.27 K, 4995 kPa | 616.99
288.27 K, 9994 kPa | 623.43
288.27 K, 14992 kPa | 629.3
288.27 K, 19992 kPa | 634.71
288.27 K, 24999 kPa | 639.75
288.27 K, 29993 kPa | 644.44
288.27 K, 34985 kPa | 648.85
288.27 K, 40007 kPa | 653.04
293.28 K, 550 kPa | 604.8
293.28 K, 4985 kPa | 611.45
293.28 K, 9991 kPa | 618.21
293.28 K, 14993 kPa | 624.34
293.28 K, 19997 kPa | 629.98
293.28 K, 24993 kPa | 635.19
293.28 K, 29998 kPa | 640.06
293.28 K, 35013 kPa | 644.64
293.28 K, 39998 kPa | 648.92
298.29 K, 551 kPa | 598.83
298.29 K, 4989 kPa | 605.85
298.29 K, 14986 kPa | 619.36
298.29 K, 19984 kPa | 625.21
298.29 K, 25012 kPa | 630.65
298.29 K, 29999 kPa | 635.67
298.29 K, 34986 kPa | 640.36
298.29 K, 39987 kPa | 644.79
298.3 K, 9994 kPa | 612.96
303.3 K, 590 kPa | 592.81
303.3 K, 4982 kPa | 600.18
303.3 K, 9998 kPa | 607.66
303.3 K, 19987 kPa | 620.43
303.3 K, 25004 kPa | 626.07
303.3 K, 29998 kPa | 631.26
303.3 K, 35005 kPa | 636.13
303.31 K, 15001 kPa | 614.35
303.31 K, 39999 kPa | 640.69
308.31 K, 635 kPa | 586.69
308.31 K, 4989 kPa | 594.43
308.32 K, 10005 kPa | 602.29
308.32 K, 14996 kPa | 609.28
308.32 K, 19995 kPa | 615.63
308.32 K, 24994 kPa | 621.44
308.32 K, 29983 kPa | 626.82
308.32 K, 35009 kPa | 631.86
308.32 K, 39996 kPa | 636.54
313.2 K, 869 kPa | 580.91
313.21 K, 4996 kPa | 588.66
313.21 K, 10004 kPa | 596.91
313.21 K, 14989 kPa | 604.2
313.21 K, 20008 kPa | 610.83
313.21 K, 24999 kPa | 616.85
313.21 K, 29996 kPa | 622.41
313.21 K, 34992 kPa | 627.58
313.21 K, 39986 kPa | 632.41
318.21 K, 939 kPa | 574.67
318.21 K, 5000 kPa | 582.76
318.21 K, 9985 kPa | 591.43
318.21 K, 14990 kPa | 599.1
318.21 K, 20004 kPa | 605.99
318.21 K, 25005 kPa | 612.25
318.21 K, 29987 kPa | 617.99
318.21 K, 34986 kPa | 623.33
318.21 K, 39990 kPa | 628.31
323.22 K, 1000 kPa | 568.23
323.22 K, 4994 kPa | 576.71
323.22 K, 9997 kPa | 585.9
323.22 K, 14997 kPa | 593.93
323.22 K, 19997 kPa | 601.1
323.22 K, 24992 kPa | 607.59
323.22 K, 30007 kPa | 613.57
323.22 K, 34983 kPa | 619.06
323.22 K, 39993 kPa | 624.2
328.22 K, 1068 kPa | 561.65
328.22 K, 4987 kPa | 570.54
328.22 K, 9989 kPa | 580.26
328.22 K, 14994 kPa | 588.69
328.22 K, 19994 kPa | 596.17
328.22 K, 24990 kPa | 602.92
328.22 K, 30006 kPa | 609.12
328.22 K, 34984 kPa | 614.78
328.22 K, 39992 kPa | 620.09
333.22 K, 1143 kPa | 554.92
333.22 K, 5001 kPa | 564.29
333.22 K, 9997 kPa | 574.58
333.22 K, 15004 kPa | 583.44
333.22 K, 19992 kPa | 591.23
333.22 K, 25005 kPa | 598.27
333.22 K, 30004 kPa | 604.66
333.22 K, 35005 kPa | 610.54
333.22 K, 39985 kPa | 615.98
338.22 K, 1226 kPa | 548.04
338.22 K, 4986 kPa | 557.85
338.22 K, 10000 kPa | 568.81
338.22 K, 15000 kPa | 578.1
338.22 K, 20000 kPa | 586.27
338.22 K, 25000 kPa | 593.57
338.22 K, 29994 kPa | 600.18
338.22 K, 35008 kPa | 606.28
338.22 K, 39996 kPa | 611.89
343.22 K, 1315 kPa | 540.98
343.22 K, 29988 kPa | 595.68
343.22 K, 34990 kPa | 601.95
343.22 K, 39986 kPa | 607.75
343.23 K, 4999 kPa | 551.32
343.23 K, 10003 kPa | 562.95
343.23 K, 14999 kPa | 572.73
343.23 K, 19997 kPa | 581.25
343.23 K, 25007 kPa | 588.85
348.23 K, 1414 kPa | 533.71
348.23 K, 4992 kPa | 544.57
348.23 K, 10005 kPa | 556.98
348.23 K, 14992 kPa | 567.27
348.23 K, 19998 kPa | 576.19
348.23 K, 25013 kPa | 584.1
348.23 K, 29992 kPa | 591.18
348.23 K, 35003 kPa | 597.68
348.23 K, 39996 kPa | 603.63
353.23 K, 1522 kPa | 526.23
353.23 K, 4999 kPa | 537.68
353.23 K, 9984 kPa | 550.87
353.23 K, 14991 kPa | 561.76
353.23 K, 20002 kPa | 571.1
353.23 K, 25003 kPa | 579.31
353.23 K, 30000 kPa | 586.67
353.23 K, 35004 kPa | 593.37
353.23 K, 39995 kPa | 599.51
358.23 K, 1641 kPa | 518.52
358.23 K, 4984 kPa | 530.51
358.23 K, 10005 kPa | 544.73
358.23 K, 14998 kPa | 556.2
358.23 K, 20004 kPa | 565.97
358.23 K, 24987 kPa | 574.48
358.23 K, 29994 kPa | 582.12
358.23 K, 35007 kPa | 589.05
358.23 K, 39996 kPa | 595.37
363.23 K, 1765 kPa | 510.53
363.23 K, 5001 kPa | 523.21
363.23 K, 9988 kPa | 538.37
363.23 K, 14981 kPa | 550.47
363.23 K, 19993 kPa | 560.72
363.23 K, 25001 kPa | 569.62
363.23 K, 30001 kPa | 577.52
363.23 K, 34991 kPa | 584.64
363.23 K, 40008 kPa | 591.18
368.24 K, 1900 kPa | 502.25
368.24 K, 4996 kPa | 515.59
368.24 K, 9996 kPa | 531.94
368.24 K, 14998 kPa | 544.78
368.24 K, 19997 kPa | 555.48
368.24 K, 25002 kPa | 564.74
368.24 K, 29994 kPa | 572.92
368.24 K, 35003 kPa | 580.31
368.24 K, 39988 kPa | 587
373.23 K, 2021 kPa | 493.52
373.23 K, 4987 kPa | 507.69
373.23 K, 9991 kPa | 525.4
373.23 K, 14991 kPa | 538.98
373.23 K, 19999 kPa | 550.26
373.24 K, 24990 kPa | 559.83
373.24 K, 29992 kPa | 568.32
373.24 K, 34981 kPa | 575.91
373.24 K, 39982 kPa | 582.83
378.24 K, 2209 kPa | 484.69
378.24 K, 5019 kPa | 499.59
378.24 K, 10006 kPa | 518.69
378.24 K, 14990 kPa | 533.06
378.24 K, 20005 kPa | 544.87
378.24 K, 25019 kPa | 554.94
378.24 K, 30003 kPa | 563.71
378.24 K, 34996 kPa | 571.57
378.24 K, 40001 kPa | 578.7
383.24 K, 2379 kPa | 475.33
383.24 K, 5004 kPa | 490.95
383.24 K, 10000 kPa | 511.79
383.24 K, 14991 kPa | 527.07
383.24 K, 19991 kPa | 539.46
383.24 K, 24987 kPa | 549.92
383.24 K, 30002 kPa | 559.07
383.24 K, 34999 kPa | 567.19
383.24 K, 39984 kPa | 574.5
388.24 K, 2560 kPa | 465.51
388.24 K, 4995 kPa | 481.89
388.24 K, 9989 kPa | 504.7
388.24 K, 15004 kPa | 521.06
388.24 K, 20002 kPa | 534.05
388.24 K, 25003 kPa | 544.95
388.24 K, 29994 kPa | 554.4
388.24 K, 34999 kPa | 562.8
388.24 K, 39985 kPa | 570.33

Details | vapor or sublimation pressure [kPa]
274.84 K | 105.09
278.8 K | 122.11
283.68 K | 145.21
287.85 K | 167.86
292.59 K | 196.47
296.57 K | 221.89
307.78 K | 313.51
313.09 K | 365.29
318.13 K | 418.65
327.87 K | 543.04
336.87 K | 680.67
345.89 K | 842.53
354.94 K | 1035.4
363.31 K | 1235
372.35 K | 1486.5
376.81 K | 1618.2
381.64 K | 1778.4
385.75 K | 1920.4
